Test results published in ChEMBL document CHEMBL1201862, “PubChem BioAssay data set” (2004).
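Where inhibition never reached the appropriate level, the endpoint shown equals the highest concentration tested. Otherwise, values were interpolated linearly from a five-concentration, 48-hour dose response in 96-well plates. GI50: concentration for 50% inhibition of growth.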 The source made the active and inactive calls. Cut-off read from the data, not from the text of the source: active = GI50 up to about 1.1 µM and inactive = higher.

Key:
Test in all cases: DTP human tumour cell line panel, 48 h
A549 = system: A549
CAKI-1 = system: CAKI-1
CCRF-CEM = system: CCRF-CEM
COLO 205 = system: COLO 205
HT-29 = system: HT-29
K562 = system: K562
KM12 = system: KM12
LOX IMVI = system: LOX IMVI
NCI-H522 = system: NCI-H522
OVCAR-3 = system: OVCAR-3
OVCAR-8 = system: OVCAR-8
SK-MEL-5 = system: SK-MEL-5
SK-OV-3 = system: SK-OV-3
SNB-19 = system: SNB-19
SNB-75 = system: SNB-75
SR = system: SR
SW-620 = system: SW-620
U-251 = system: U-251
UO-31 = system: UO-31
HL-60 = system: HL-60

Compound	GI50 (A549)	GI50 (CAKI-1)	GI50 (CCRF-CEM)	GI50 (COLO 205)	GI50 (HT-29)	GI50 (K562)	GI50 (KM12)	GI50 (LOX IMVI)	GI50 (NCI-H522)	GI50 (OVCAR-3)	GI50 (OVCAR-8)	GI50 (SK-MEL-5)	GI50 (SK-OV-3)	GI50 (SNB-19)	GI50 (SNB-75)	GI50 (SR)	GI50 (SW-620)	GI50 (U-251)	GI50 (UO-31)	GI50 (HL-60)
CCCCCCCC/C=C/CCCCCCCC(=O)N(O)C1CC(n2cc(C)c(=O)[nH]c2=O)OC1CO (stereo not drawn)	19 µM (inactive)	8.99 µM (inactive)	4.22 µM (inactive)	4.8 µM (inactive)	10.2 µM (inactive)	0.488 µM (active)	11.3 µM (inactive)	4.9 µM (inactive)	7.76 µM (inactive)	7.33 µM (inactive)	11.4 µM (inactive)	7.18 µM (inactive)	10.3 µM (inactive)	12.9 µM (inactive)	12.1 µM (inactive)	3.27 µM (inactive)	11 µM (inactive)	4.89 µM (inactive)	3.96 µM (inactive)	–
Cc1cc(C)nc(NS(=O)(=O)c2ccc(Nc3c4ccccc4nc4c(C(=O)Nc5ccc(S(=O)(=O)Nc6cc(C)on6)cc5)cccc34)cc2)n1	34.7 µM (inactive)	21.9 µM (inactive)	–	17.7 µM (inactive)	19.9 µM (inactive)	23.2 µM (inactive)	20 µM (inactive)	19.8 µM (inactive)	14.7 µM (inactive)	17.7 µM (inactive)	18.4 µM (inactive)	18.7 µM (inactive)	27.1 µM (inactive)	24.2 µM (inactive)	32.3 µM (inactive)	27.5 µM (inactive)	23.4 µM (inactive)	19.8 µM (inactive)	26.4 µM (inactive)	22.8 µM (inactive)
c1ccc2c(CSCc3cccc4ccccc34)cccc2c1	> 100 µM (inactive)	> 100 µM (inactive)	3.5 µM (inactive)	–	40.2 µM (inactive)	76.7 µM (inactive)	> 100 µM (inactive)	> 100 µM (inactive)	99.3 µM (inactive)	> 100 µM (inactive)	> 100 µM (inactive)	88.7 µM (inactive)	–	> 100 µM (inactive)	> 100 µM (inactive)	28.6 µM (inactive)	> 100 µM (inactive)	85.1 µM (inactive)	> 100 µM (inactive)	–
CC1(C)OCC(C2OC3OC(C)(C)OC3C2c2ccccc2)O1 (stereo not drawn)	42.8 µM (inactive)	–	30.5 µM (inactive)	21.2 µM (inactive)	39.6 µM (inactive)	30.2 µM (inactive)	82.4 µM (inactive)	32.1 µM (inactive)	37.7 µM (inactive)	34.4 µM (inactive)	43 µM (inactive)	17.1 µM (inactive)	> 100 µM (inactive)	71.8 µM (inactive)	50.6 µM (inactive)	28.8 µM (inactive)	32.8 µM (inactive)	78 µM (inactive)	44.8 µM (inactive)	18.3 µM (inactive)
COc1ccccc1/N=N/c1c(-c2ccccc2)nn(C(=O)CC(=O)Nc2ccccc2Cl)c1-c1ccccc1	> 100 µM (inactive)	–	77.8 µM (inactive)	> 100 µM (inactive)	99.3 µM (inactive)	> 100 µM (inactive)	> 100 µM (inactive)	> 100 µM (inactive)	> 100 µM (inactive)	> 100 µM (inactive)	> 100 µM (inactive)	> 100 µM (inactive)	> 100 µM (inactive)	> 100 µM (inactive)	> 100 µM (inactive)	> 100 µM (inactive)	> 100 µM (inactive)	> 100 µM (inactive)	> 100 µM (inactive)	> 100 µM (inactive)
